Data taken from the supplement of paper PMC8671470.

tested on: THP-1; experiment: cell viability (% survival relative to DMSO control, bortezomib = 0%); higher = less cytotoxic; settings: 1000 nM; 72 h
Summary of the method: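 In 384-well plates pre-printed with compounds at 1, 10, 100, 1000 or 10000 nM, duplicate wells received cells from 10 AML and 5 CML lines at densities within the linear growth range. The plates stayed at 37 °C with 5% CO2 for 72 h before CellTiter-Glo luminescence was recorded. Each entry is averaged percent survival. Scaling placed vehicle at 100% and a 10 µM positive control at 0%.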

Row | SMILES | cell viability
1 | CCCCCCCCCCC[C@@H](C[C@@H]1OC(=O)[C@H]1CCCCCC)OC(=O)[C@H](CC(C)C)NC=O [Orlistat] | 95%
2 | COc1ccc(C(=O)Nc2c(Cl)cncc2Cl)cc1OC1CCCC1 [Piclamilast] | 102%
3 | COc1cc(/C=C/C(=O)N2CCC=CC2=O)cc(OC)c1OC [Piperlongumine] | 88%
4 | O=C(NNc1ccccc1)c1ccncc1 [PluriSln 1] | 108%
5 | CC(C)c1nc(CN(C)C(=O)N[C@H](C(=O)N[C@@H](Cc2ccccc2)C[C@H](O)[C@H](Cc2ccccc2)NC(=O)OCc2cncs2)C(C)C)cs1 [Ritonavir] | 97.3%
6 | C=C(C)[C@H]1Cc2c(ccc3c2O[C@@H]2COc4cc(OC)c(OC)cc4[C@@H]2C3=O)O1 [Rotenone] | 37.6%
7 | Oc1ccc(Nc2nc(-c3ccc(Cl)cc3)cs2)cc1 [SKI II] | 86.4%
8 | O=C(O)c1cc(N=Nc2ccc(S(=O)(=O)Nc3ccccn3)cc2)ccc1O [Sulfasalazine] | 101%

same assay, conditions: 10000 nM; 72 h

Row | SMILES | cell viability
9 | CCCCN1C[C@H](O)[C@@H](O)[C@H](O)[C@H]1CO [Miglustat] | 94.7%
10 | C=C(C=NNC(=N)N)NNC(=N)N [Mitoguazone] | 43.6%
11 | CCCCC/C=C\C/C=C\C/C=C\C/C=C\CCCCN1C(=O)C=CC1=O [N-Arachidonylmaleimide] | 96.3%
12 | CCCCCCCCCCC[C@@H](C[C@@H]1OC(=O)[C@H]1CCCCCC)OC(=O)[C@H](CC(C)C)NC=O [Orlistat] | 94.6%
13 | COc1ccc(C(=O)Nc2c(Cl)cncc2Cl)cc1OC1CCCC1 [Piclamilast] | 109%
14 | COc1cc(/C=C/C(=O)N2CCC=CC2=O)cc(OC)c1OC [Piperlongumine] | -0.152%
15 | O=C(NNc1ccccc1)c1ccncc1 [PluriSln 1] | 95.4%
16 | CC(C)c1nc(CN(C)C(=O)N[C@H](C(=O)N[C@@H](Cc2ccccc2)C[C@H](O)[C@H](Cc2ccccc2)NC(=O)OCc2cncs2)C(C)C)cs1 [Ritonavir] | 88.2%
17 | C=C(C)[C@H]1Cc2c(ccc3c2O[C@@H]2COc4cc(OC)c(OC)cc4[C@@H]2C3=O)O1 [Rotenone] | 24.5%
18 | Oc1ccc(Nc2nc(-c3ccc(Cl)cc3)cs2)cc1 [SKI II] | 8.38%
19 | O=C(O)c1cc(N=Nc2ccc(S(=O)(=O)Nc3ccccn3)cc2)ccc1O [Sulfasalazine] | 106%

tested on: HL-60; experiment: area under dose-response curve (viability, 1 nM-10 uM) (fraction (0-1)); higher = more sensitive; settings: 72 h; co-treatment: AZD3965 100 nM
Summary of the method: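 HL-60 cells in RPMI 1640 with 10% FBS were rescreened against the full library on 384-well plates at five tenfold concentrations, 1–10,000 nM, in duplicate. Each screen was run with DMSO or 100 nM of one of three metabolic inhibitors, for 72 h at 37 °C, 5% CO2. Viability was read by CellTiter-Glo and normalised to DMSO and 10 μM proteasome-inhibitor wells. Where given, area under the curve came from four-parameter log-logistic fits (drc, PharmacoGx).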

Row | SMILES | area under dose-response curve
20 | CCCCN1C[C@H](O)[C@@H](O)[C@H](O)[C@H]1CO [Miglustat] | < 0.0301
21 | C=C(C=NNC(=N)N)NNC(=N)N [Mitoguazone] | 0.0689
22 | CCCCC/C=C\C/C=C\C/C=C\C/C=C\CCCCN1C(=O)C=CC1=O [N-Arachidonylmaleimide] | < 0.0301
23 | CCCCCCCCCCC[C@@H](C[C@@H]1OC(=O)[C@H]1CCCCCC)OC(=O)[C@H](CC(C)C)NC=O [Orlistat] | < 0.0301
24 | COc1ccc(C(=O)Nc2c(Cl)cncc2Cl)cc1OC1CCCC1 [Piclamilast] | < 0.0301
25 | COc1cc(/C=C/C(=O)N2CCC=CC2=O)cc(OC)c1OC [Piperlongumine] | 0.131
26 | O=C(NNc1ccccc1)c1ccncc1 [PluriSln 1] | 0.0541
27 | CC(C)c1nc(CN(C)C(=O)N[C@H](C(=O)N[C@@H](Cc2ccccc2)C[C@H](O)[C@H](Cc2ccccc2)NC(=O)OCc2cncs2)C(C)C)cs1 [Ritonavir] | < 0.0301
28 | C=C(C)[C@H]1Cc2c(ccc3c2O[C@@H]2COc4cc(OC)c(OC)cc4[C@@H]2C3=O)O1 [Rotenone] | 0.137
29 | Oc1ccc(Nc2nc(-c3ccc(Cl)cc3)cs2)cc1 [SKI II] | 0.0929
30 | O=C(O)c1cc(N=Nc2ccc(S(=O)(=O)Nc3ccccn3)cc2)ccc1O [Sulfasalazine] | < 0.0301

same assay, conditions: 72 h; co-treatment: DMSO vehicle

Row | SMILES | area under dose-response curve
31 | CCCCN1C[C@H](O)[C@@H](O)[C@H](O)[C@H]1CO [Miglustat] | < 0.0301
32 | C=C(C=NNC(=N)N)NNC(=N)N [Mitoguazone] | < 0.0301
33 | CCCCC/C=C\C/C=C\C/C=C\C/C=C\CCCCN1C(=O)C=CC1=O [N-Arachidonylmaleimide] | < 0.0301
34 | CCCCCCCCCCC[C@@H](C[C@@H]1OC(=O)[C@H]1CCCCCC)OC(=O)[C@H](CC(C)C)NC=O [Orlistat] | < 0.0301
35 | COc1ccc(C(=O)Nc2c(Cl)cncc2Cl)cc1OC1CCCC1 [Piclamilast] | < 0.0301
36 | COc1cc(/C=C/C(=O)N2CCC=CC2=O)cc(OC)c1OC [Piperlongumine] | 0.134
37 | O=C(NNc1ccccc1)c1ccncc1 [PluriSln 1] | 0.0377
38 | CC(C)c1nc(CN(C)C(=O)N[C@H](C(=O)N[C@@H](Cc2ccccc2)C[C@H](O)[C@H](Cc2ccccc2)NC(=O)OCc2cncs2)C(C)C)cs1 [Ritonavir] | < 0.0301
39 | C=C(C)[C@H]1Cc2c(ccc3c2O[C@@H]2COc4cc(OC)c(OC)cc4[C@@H]2C3=O)O1 [Rotenone] | 0.319
40 | Oc1ccc(Nc2nc(-c3ccc(Cl)cc3)cs2)cc1 [SKI II] | 0.0805
41 | O=C(O)c1cc(N=Nc2ccc(S(=O)(=O)Nc3ccccn3)cc2)ccc1O [Sulfasalazine] | < 0.0301

same assay, conditions: 72 h; co-treatment: GSK2194069 100 nM

Row | SMILES | area under dose-response curve
42 | CCCCN1C[C@H](O)[C@@H](O)[C@H](O)[C@H]1CO [Miglustat] | < 0.0301
43 | C=C(C=NNC(=N)N)NNC(=N)N [Mitoguazone] | 0.0353
44 | CCCCC/C=C\C/C=C\C/C=C\C/C=C\CCCCN1C(=O)C=CC1=O [N-Arachidonylmaleimide] | < 0.0301
45 | CCCCCCCCCCC[C@@H](C[C@@H]1OC(=O)[C@H]1CCCCCC)OC(=O)[C@H](CC(C)C)NC=O [Orlistat] | 0.0449
46 | COc1ccc(C(=O)Nc2c(Cl)cncc2Cl)cc1OC1CCCC1 [Piclamilast] | < 0.0301
47 | COc1cc(/C=C/C(=O)N2CCC=CC2=O)cc(OC)c1OC [Piperlongumine] | 0.156
48 | O=C(NNc1ccccc1)c1ccncc1 [PluriSln 1] | < 0.0301
49 | C=C(C)[C@H]1Cc2c(ccc3c2O[C@@H]2COc4cc(OC)c(OC)cc4[C@@H]2C3=O)O1 [Rotenone] | 0.289
50 | Oc1ccc(Nc2nc(-c3ccc(Cl)cc3)cs2)cc1 [SKI II] | 0.0628
51 | O=C(O)c1cc(N=Nc2ccc(S(=O)(=O)Nc3ccccn3)cc2)ccc1O [Sulfasalazine] | < 0.0301

same assay, conditions: 72 h; co-treatment: pictilisib 100 nM

Row | SMILES | area under dose-response curve
52 | CCCCN1C[C@H](O)[C@@H](O)[C@H](O)[C@H]1CO [Miglustat] | < 0.0301
53 | C=C(C=NNC(=N)N)NNC(=N)N [Mitoguazone] | 0.0324
54 | CCCCC/C=C\C/C=C\C/C=C\C/C=C\CCCCN1C(=O)C=CC1=O [N-Arachidonylmaleimide] | < 0.0301
55 | CCCCCCCCCCC[C@@H](C[C@@H]1OC(=O)[C@H]1CCCCCC)OC(=O)[C@H](CC(C)C)NC=O [Orlistat] | < 0.0301
56 | COc1ccc(C(=O)Nc2c(Cl)cncc2Cl)cc1OC1CCCC1 [Piclamilast] | < 0.0301
57 | COc1cc(/C=C/C(=O)N2CCC=CC2=O)cc(OC)c1OC [Piperlongumine] | 0.153
58 | O=C(NNc1ccccc1)c1ccncc1 [PluriSln 1] | < 0.0301
59 | CC(C)c1nc(CN(C)C(=O)N[C@H](C(=O)N[C@@H](Cc2ccccc2)C[C@H](O)[C@H](Cc2ccccc2)NC(=O)OCc2cncs2)C(C)C)cs1 [Ritonavir] | < 0.0301
60 | C=C(C)[C@H]1Cc2c(ccc3c2O[C@@H]2COc4cc(OC)c(OC)cc4[C@@H]2C3=O)O1 [Rotenone] | 0.256
61 | Oc1ccc(Nc2nc(-c3ccc(Cl)cc3)cs2)cc1 [SKI II] | 0.151
62 | O=C(O)c1cc(N=Nc2ccc(S(=O)(=O)Nc3ccccn3)cc2)ccc1O [Sulfasalazine] | < 0.0301
